Entries after “also recorded” stand apart in the source; their conditions may differ.
Key:
[1] = system: Zucker Diabetic Fatty rats; assay: Measurement of bone mineral density (femoral bones, ZDF rats); format: in vivo; conditions: for Bone mineral density (BMD): mean ± standard error
Procedure: Osteoporosis may be assessed by a measurement of bone mineral density. Bone mineral density can be measured according to the method reported, for example, in Radioisotope, 37, (9), 521-524 (1988) or in Rinsho-Hoshasen, 35, (1), 41-48 (1990).
Three groups of animals were tested:
(§1) 1. Zucker Diabetic Fatty rats ("ZDF rats"): these are experimental animals with spontaneous diabetes mellitus. A test drug was administered to these animals in a conventional F2 powdery feed. This group is referred to as the "test ZDF group".
2. ZDF rats to which the F2 powdery feed is administered without the drug. This group is referred to as the "control ZDF group".
3. Normal experimental rats (i.e. not ZDF rats) to which the F2 powdery feed is administered without the drug. This group is referred to as the "normal group".
(§2) Compound No. 1, or 5-[4-(6-hydroxy-2,5,7,8-tetramethylchroman-2-ylmethoxy)benzyl]thiazolidin- 2,4-dione, also known as "troglitazone", was administered to 6 week old ZDF rats, by mixing it into F2 powdery feed in an amount of 0.2% w/w for a period of 13 weeks. The mean dosage was 165 mg/kg/day. […] At 19 weeks of age, the rats were sacrificed by ether anesthesia followed by blood-letting from the abdominal aorta. The femoral bones were excised to measure their bone mineral density. For the measurement by X ray, Bone Mineral Density Measuring Apparatus (DCS-600R, Aloka, Japan) was employed.
The experiment reported in Example 1 was repeated, using 4 groups of rats:
1. A normal group (as in Example 1).
2. A control ZDF group (as in Example 1).
(§3) 3. A test ZDF group in which troglitazone was present in the feed in an amount of 0.2%, resulting in an average uptake of 132 mg/kg/day (hereinafter the "troglitazone ZDF group").
(§4) 4. A test ZDF group in which pioglitazone was present in the feed in an amount of 0.067%, resulting in an average uptake of 52.6 mg/kg/day (hereinafter the "pioglitazone ZDF group").
The experiment reported in Example 1 was repeated, but only for 4 weeks, using 6 groups of rats:
(§5) 3. A test ZDF group in which troglitazone was present in the feed in an amount of 0.05%, resulting in an average uptake of 43.5 mg/kg/day (hereinafter the "low troglitazone ZDF group").
(§6) 4. A test ZDF group in which troglitazone was present in the feed in an amount of 0.1%, resulting in an average uptake of 89.8 mg/kg/day (hereinafter the "high troglitazone ZDF group").
(§7) 5. A test ZDF group in which pioglitazone was present in the feed in an amount of 0.0125%, resulting in an average uptake of 12.4 mg/kg/day (hereinafter the "low pioglitazone ZDF group").
(§8) 6. A test ZDF group in which pioglitazone was present in the feed in an amount of 0.025%, resulting in an average uptake of 23.1 mg/kg/day (hereinafter the "high pioglitazone ZDF group").

ddy-mice = assay: Acute toxicity, oral administration; conditions: in vivo, po, 300 mg/kg
Procedure: (§9) The acute toxicity of troglitazone was examined by a conventional procedure.
(§10) To 3 ddy-mice, a dose of 300 mg/kg of troglitazone was administered orally.
(§11) The acute toxicities of Compounds Nos. 2, 3, 4 and 10 were examined in a similar way by oral administration. The acute toxicity values were all found to be more than 300 mg/kg.

[2] = system: Zucker Diabetic Fatty rats; assay: Control of diabetes in ZDF rats; format: in vivo
Procedure: as §1, §2, §3, §4, §5, §6, §7, §8

[3] = Acute toxicity, oral administration; conditions: mouse, in vivo; oral administration
Procedure: as §9, §10, §11

rat = conditions: J. Bone & Mineral Research, 10(1), S361 (1995); cited from earlier work
[4] = Example 2, at doses that fully control diabetes, compared with control ZDF rats
[5] = Example 3, low and high doses, 4 weeks, as compared with control ZDF group
[6] = Example 2, troglitazone 132 mg/kg/day, pioglitazone 52.6 mg/kg/day
[7] = Example 3, troglitazone 43.5 and 89.8 mg/kg/day, pioglitazone 12.4 and 23.1 mg/kg/day

For `Cc1c(C)c2c(c(C)c1O)CCC(C)(COc1ccc(CC3SC(=O)NC3=O)cc1)O2` (centres unmarked) [Compound No. 1, 5-[4-(6-Hydroxy-2,5,7,8-tetramethylchroman-2-ylmethoxy)benzyl]thiazolidin-2,4-dione], the “Bone mineral density (BMD)” value ([1]; Example 1, test ZDF group, 0.2% w/w in feed, mean 165 mg/kg/day, 13 weeks, n=7, * p < 0.05 vs control ZDF (164.6 ± 3.9), normal 187.3 ± 2.3) was 172.8 ± 7.2 mg/cm^2, the “effect on bone mineral density (in words)” value (from here on “effect”) [1, 4] was “increased BMD from the depressed level in the control ZDF rats almost to the level found in normal rats” and the “Bone mineral density (BMD)” value ([1]; Example 2, troglitazone ZDF group, 0.2% in feed, 132 mg/kg/day, n=6, *** p < 0.001 vs control ZDF (157.0 ± 2.2), normal 187.4 ± 1.5) was 169.4 ± 1.1 mg/cm^2. For the same molecule, the “Bone mineral density (BMD)” value ([1]; Example 3, 4 weeks, high troglitazone ZDF group, 0.1% in feed, 89.8 mg/kg/day, n=5, *** p < 0.001 vs control ZDF (149.8 ± 1.0)) was 159.8 ± 1.2 mg/cm^2, the “Bone mineral density (BMD)” value ([1]; Example 3, 4 weeks, low troglitazone ZDF group, 0.05% in feed, 43.5 mg/kg/day, n=5, *** p < 0.001 vs control ZDF (149.8 ± 1.0), normal 153.4 ± 0.9) was 156.6 ± 1.5 mg/cm^2 and the “effect” value [1, 5] was “improves BMD as compared with the control ZDF group”. For the same molecule, the “survival after 5 days” value (ddy-mice) was “all mice were alive”, the control of diabetes ([2]; Example 1, mean dosage 165 mg/kg/day in feed) was “diabetes is fully controlled” and the control of diabetes [2, 6] was “fully controlled diabetes”. The control of diabetes [2, 7] was “do not control diabetes or control it only partially; also recorded: incompletely effective against diabetes”.

Molecule `Cc1c(C)c2c(c(C)c1O)CCC(COc1ccc(CC3SC(=O)NC3=O)cc1)O2` (centres unmarked) [compound 2] has an LD50 at 120 h [3] greater than 300 mg/kg.

With `CC1(COc2ccc(CC3SC(=O)NC3=O)cc2)CCc2cc(O)ccc2O1` (centres unmarked) [compound 3] the LD50 at 120 h [3] was greater than 300 mg/kg.

Molecule `CC1(COc2ccc(CC3SC(=O)NC3=O)cc2)CCc2cc(O)c(C(C)(C)C)cc2O1` (centres unmarked) [compound 4, 5-[4-(6-Hydroxy-2-methyl-7-t-butylchroman-2-ylmethoxy)benzyl]thiazolidin-2,4-dione] has an LD50 at 120 h [3] greater than 300 mg/kg.

Work on `CCOC(=O)Oc1c(C)c(C)c2c(c1C)CCC(C)(COc1ccc(CC3SC(=O)NC3=O)cc1)O2` (centres unmarked) [compound 10] yielded an LD50 at 120 h [3] greater than 300 mg/kg.

With `CCc1ccc(CCOc2ccc(CC3SC(=O)NC3=O)cc2)nc1` (centres unmarked) [pioglitazone, reference compound] the “effect” value [1, 4] was “reduced BMD to below the level found in untreated ZDF rats”, the “Bone mineral density (BMD)” value ([1]; Example 2, pioglitazone ZDF group, 0.067% in feed, 52.6 mg/kg/day, n=6, * p < 0.05 vs control ZDF (157.0 ± 2.2)) was 149.3 ± 1.8 mg/cm^2 and the “Bone mineral density (BMD)” value ([1]; Example 3, 4 weeks, high pioglitazone ZDF group, 0.025% in feed, 23.1 mg/kg/day, n=5, control ZDF 149.8 ± 1.0) was 151.2 ± 0.7 mg/cm^2. The “Bone mineral density (BMD)” value ([1]; Example 3, 4 weeks, low pioglitazone ZDF group, 0.0125% in feed, 12.4 mg/kg/day, n=5, control ZDF 149.8 ± 1.0) was 151.2 ± 0.9 mg/cm^2, the “effect” value [1, 5] was “not effective” and the control of diabetes [2, 6] was “fully controlled diabetes”. The control of diabetes [2, 7] was “do not control diabetes or control it only partially; also recorded: incompletely effective against diabetes”, the “anti-diabetic activity relative to troglitazone” value ([2]; statement in Example 2) was “more active than troglitazone” and the “bone loss as assessed by bone mineral density” value (rat) was “lead to bone loss, as assessed by a decrease in bone mineral density”.

From patent US5804590A, “Treatment and prophylaxis of osteoporosis” (Sankyo Company, Limited, priority 1995, dated 1998)
